From patent US10626115B2, “Fused pyrimidinone and triazinone derivatives containing bridged nitrogen, their process of preparation and their therapeutic uses as antifungal and/or antiparasitic agents” (UNIVERSITE DE NANTES, priority 2015, dated 2020)
Converted amounts (≈) assume the structure as drawn.

Tests used:
[1] = tested on: fluconazole-susceptible C. albicans strain: CAAL93; assay: Antifungal susceptibility, spectrofluorimetric microdilution, CAAL93; format: cell-based; details: Candida albicans, read-out: MIC values CAAL93
Protocol: (§1) Eight strains of Candida spp. with various azoles-susceptibilities were used: • One fluconazole-susceptible C. albicans strain: CAAL93 • Two fluconazole-resistant C. albicans strains: CAAL111 (efflux pump) and CAAL117 (erg11 mutations+voriconazole-resistant) • five fluconazole-resistant Candida non albicans strains: C. krusei (CAKR7, CAKR8), C. glabrata (CAGL2), C. parapsilosis s.l. (CAPA1, CAPA2).
(§2) Antifungal susceptibility was evaluated with a spectrofluorimetric microdilution method.

[2] = tested on: fluconazole-resistant C. albicans strain CAAL111 (efflux pump); assay: microbe, parasite or virus in culture; format: cell-based; details: Candida albicans, read-out: MIC values CAAL111
Protocol: as §1, §2

[3] = tested on: fluconazole-resistant C. glabrata (CAGL2); assay: microbe, parasite or virus in culture; format: cell-based; details: Nakaseomyces glabratus, read-out: MIC values CAGL2
Protocol: as §1, §2

[4] = tested on: fluconazole-resistant C. krusei (CAKR7); assay: microbe, parasite or virus in culture; format: cell-based; details: Pichia kudriavzevii, read-out: MIC values CAKR7
Protocol: as §1, §2

[5] = tested on: fluconazole-resistant C. krusei (CAKR8); assay: microbe, parasite or virus in culture; format: cell-based; details: Pichia kudriavzevii, read-out: MIC values CAKR8
Protocol: as §1, §2

[6] = tested on: fluconazole-resistant C. parapsilosis s.l. (CAPA1); assay: microbe, parasite or virus in culture; format: cell-based; details: Lodderomyces parapsilosis, read-out: MIC values CAPA1
Protocol: as §1, §2

[7] = tested on: fluconazole-resistant C. parapsilosis s.l. (CAPA2); assay: microbe, parasite or virus in culture; format: cell-based; details: Lodderomyces parapsilosis, read-out: MIC values CAPA2
Protocol: as §1, §2

[8] = tested on: A. fumigatus susceptible strain ASFU76; assay: Antifungal susceptibility, spectrofluorimetric microdilution, ASFU76; format: cell-based, Aspergillus fumigatus; details: Aspergillus fumigatus, read-out: MIC values ASFU76
Protocol: (§3) Eleven strains of A. fumigatus with various itraconazole susceptibility were used: • Five susceptible strains: ASFU7, ASFU35A, ASFU38A, ASFU76 and ASFU78. • Six itraconazole-resistant strains: ASFU77 (erg11 mutation), ASFU13, ASFU17, ASFU19, ASFU20, ASFU23.
(§4) Antifungal susceptibility was evaluated with a spectrofluorimetric microdilution method. MIC was the concentration that was able to inhibit 80% of fluorescence measured in the control wells.

[9] = tested on: A. fumigatus susceptible strain ASFU35A; assay: Antifungal susceptibility, spectrofluorimetric microdilution, ASFU35A; format: cell-based, Aspergillus fumigatus; details: Aspergillus fumigatus, read-out: MIC values ASFU35A
Protocol: as §3, §4

[10] = tested on: A. fumigatus susceptible strain ASFU38A; assay: Antifungal susceptibility, spectrofluorimetric microdilution, ASFU38A; format: cell-based, Aspergillus fumigatus; details: Aspergillus fumigatus, read-out: MIC values ASFU38A
Protocol: as §3, §4

[11] = tested on: A. fumigatus susceptible strain ASFU7; assay: Antifungal susceptibility, spectrofluorimetric microdilution, ASFU7; format: cell-based, Aspergillus fumigatus; details: Aspergillus fumigatus, read-out: MIC values ASFU7
Protocol: as §3, §4

[12] = tested on: A. fumigatus susceptible strain ASFU78; assay: Antifungal susceptibility, spectrofluorimetric microdilution, ASFU78; format: cell-based, Aspergillus fumigatus; details: Aspergillus fumigatus, read-out: MIC values ASFU78
Protocol: as §3, §4

[13] = tested on: A. fumigatus itraconazole-resistant strain ASFU77 (erg11 mutation); assay: Antifungal susceptibility, spectrofluorimetric microdilution, ASFU77; format: cell-based, Aspergillus fumigatus; details: for MIC: Aspergillus fumigatus, read-out: MIC values ASFU77
Protocol: as §3, §4

[14] = Cytotoxicity on HeLa cells; format: cell-based, Human; details: human, 50% inhibition of control fluorescence
Protocol: (§5) Hela Human cell line was used in view to evaluate cytotoxicity. It was evaluated with a spectrofluorimetric microdilution method. IC50 was the concentration that was able to inhibit 50% of fluorescence measured in the control wells.

[15] = tested on: Candida albicans strain (CAAL93); assay: Murine systemic candidiasis; format: in vivo; details: neutropenic Swiss mice, CAAL93 i.v., 10 mg/kg per os once a day for 5 days; for survival compared with the non-treated group: 28 days (compound 51, 14 days); for survival compared with the non-treated group / activity on fungal burden of the kidney compared to FLC: p<0.05; for fungal burden of the kidney: p<0.05 (compound 51 p<0.001)
Protocol: (§6) Transiently neutropenic female Swiss mice were used for experiments on systemic candidiasis and invasive aspergillosis.
Mice were inoculated intravenously with a Candida albicans strain (CAAL93). Treatment was administrated once a day (10 mg/kg per os) for 5 days. […] Fungal burden of the kidney was evaluated in dead animals during the experimentation or in animals sacrificed at the end of the experimentation.

[16] = tested on: promastigote stage of a Leishmania mexicana strain; assay: Anti-Trypanosomatidae activity, promastigote stage, spectrofluorimetric microdilution; format: cell-based; details: for IC50: Leishmania mexicana, promastigote stage, 50% of control growth, read-out: L. mexicana (IC50 μM)
Protocol: Compounds were evaluated on the promastigote stage of a Leishmania mexicana strain using a spectrofluorimetric microdilution method. Inhibitory concentration 50 (IC50) was the concentration that inhibited 50% of the control growth.

[17] = tested on: Aspergillus fumigatus (ASFU7) spores; assay: Murine invasive aspergillosis; format: in vivo; details: neutropenic Swiss mice, ASFU7 spores i.v., 10 mg/kg per os once a day for 5 days
Protocol: as §6
Mice were inoculated intravenously with Aspergillus fumigatus (ASFU7) spores.
Treatment was administrated once a day (10 mg/kg per os) for 5 days. […] Fungal burden of the kidney was evaluated in dead animals during the experimentation or in animals sacrificed at the end of the experimentation.

[18] = tested on: fluconazole-resistant C. albicans strain CAAL117 (erg11 mutations+voriconazole-resistant); assay: microbe, parasite or virus in culture; format: cell-based
Protocol: as §1, §2

[19] = tested on: A. fumigatus itraconazole-resistant strain ASFU13; assay: Antifungal susceptibility, spectrofluorimetric microdilution, ASFU13; format: cell-based, Aspergillus fumigatus
Protocol: as §3, §4

[20] = tested on: A. fumigatus itraconazole-resistant strain ASFU17; assay: Antifungal susceptibility, spectrofluorimetric microdilution, ASFU17; format: cell-based, Aspergillus fumigatus; details: Aspergillus fumigatus, read-out: MIC values ASFU17
Protocol: as §3, §4

[21] = tested on: A. fumigatus itraconazole-resistant strain ASFU19; assay: Antifungal susceptibility, spectrofluorimetric microdilution, ASFU19; format: cell-based, Aspergillus fumigatus; details: Aspergillus fumigatus, read-out: MIC values ASFU19
Protocol: as §3, §4

[22] = tested on: A. fumigatus itraconazole-resistant strain ASFU20; assay: Antifungal susceptibility, spectrofluorimetric microdilution, ASFU20; format: cell-based, Aspergillus fumigatus
Protocol: as §3, §4

[23] = tested on: A. fumigatus itraconazole-resistant strain ASFU23; assay: Antifungal susceptibility, spectrofluorimetric microdilution, ASFU23; format: cell-based, Aspergillus fumigatus
Protocol: as §3, §4

Hela Human cell line = assay: Cytotoxicity on HeLa cells; format: cell-based; details: 100 μM
Protocol: as §5

CRL:(WI) rats = assay: Acute oral toxicity study in rats; format: in vivo
Protocol: The single-dose oral toxicity of compound 51 was performed according to the acute toxic class method (OECD 423 and Commission Regulation (EC) No 440/2008 of 30 May 2008, B.1.Tris) in CRL:(WI) rats.
Two groups of three female CRL:(WI) rats were treated with the test item at a dose level of 300 mg/kg bw (Group 1 and Group 2).
A single oral treatment was carried out by gavage for each animal after an overnight food withdrawal. Food was made available again 3 hours after the treatment. The test item was administered formulated in DMSO at a concentration of 30 mg/mL at a dose volume of 10 mL/kg bw.
Initially, three females (Group 1) were treated at a dose level of 300 mg/kg bw. As no mortality was observed, a confirmatory group (Group 2) was treated at the same dose level.
Clinical observations were performed at 30 minutes, 1, 2, 3, 4 and 6 hours after dosing and daily for 14 days thereafter. Body weight was measured on days −1, 0 and 7 and before necropsy. All animals were subjected to a necropsy and a macroscopic examination

C[C@@H](n1ccc2nc(-c3ccccc3)cn2c1=O)[C@](O)(Cn1cncn1)c1ccc(F)cc1F [Compound 29, 6-[(1R,2R)-2-(2,4-Difluorophenyl)-2-hydroxy-1-methyl-3-(1H-1,2,4-triazol-1-yl)propyl]-2-phenylimidazo[1,2-c]pyrimidin-5-one]
MIC [1]: < 0.001 µg/mL
MIC [2]: 0.005 ± 0.002 µg/mL (≈ 0.0108 µM)
MIC [3]: 0.15 ± 0.01 µg/mL (≈ 0.324 µM)
MIC [4]: 1.28 ± 0.33 µg/mL (≈ 2.77 µM)
MIC [5]: 0.07 ± 0.02 µg/mL (≈ 0.151 µM)
MIC [6]: 0.009 ± 0.003 µg/mL (≈ 0.0195 µM)
MIC [7]: 0.007 ± 0.004 µg/mL (≈ 0.0151 µM)
MIC [8]: 6.66 ± 0.53 µg/mL (≈ 14.4 µM)
MIC [9]: 6.36 ± 1.42 µg/mL (≈ 13.8 µM)
MIC [10]: 6.86 ± 1 µg/mL (≈ 14.8 µM)
MIC [11]: 2.49 ± 0.13 µg/mL (≈ 5.38 µM)
MIC [12]: 5.93 ± 0.72 µg/mL (≈ 12.8 µM)
MIC [13]: 28.2 ± 21.9 µg/mL (≈ 61 µM)
IC50 [14]: 25 µM
survival compared with the non-treated group [15]: significant longer survival
activity on fungal burden of the kidney compared to FLC [15]: significantly higher when compared to FLC
fungal burden of the kidney [15]: significantly decreased
effectiveness against the promastigote stage of L. Mexicana, in words [16]: effective
IC50 [16]: 2.8 ± 0.3 µM

C[C@@H](n1ccc2nc(-c3ccc(C#N)cc3)cn2c1=O)[C@](O)(Cn1cncn1)c1ccc(F)cc1F [Compound 34, 6-[(1R,2R)-2-(2,4-Difluorophenyl)-2-hydroxy-1-methyl-3-(1H-1,2,4-triazol-1-yl)propyl]-2-(4-cyanophenyl)imidazo[1,2-c]pyrimidin-5-one]
MIC [1]: < 0.001 µg/mL
MIC [2]: 0.003 ± 0.001 µg/mL (≈ 0.00615 µM)
MIC [3]: 0.64 ± 0.27 µg/mL (≈ 1.31 µM)
MIC [4]: 0.45 ± 0.31 µg/mL (≈ 0.923 µM)
MIC [5]: 0.06 ± 0.01 µg/mL (≈ 0.123 µM)
MIC [6]: 0.002 ± 0.001 µg/mL (≈ 0.0041 µM)
MIC [7]: 0.002 ± 0.001 µg/mL (≈ 0.0041 µM)
MIC [8]: 6.44 ± 0.17 µg/mL (≈ 13.2 µM)
MIC [9]: 6.27 ± 0.3 µg/mL (≈ 12.9 µM)
MIC [10]: 12.6 ± 4.05 µg/mL (≈ 25.9 µM)
MIC [11]: 2.43 ± 0.19 µg/mL (≈ 4.98 µM)
MIC [12]: 5.98 ± 0.62 µg/mL (≈ 12.3 µM)
MIC [13]: 38.4 ± 13.1 µg/mL (≈ 78.7 µM)
IC50 [14]: 25 µM
survival efficiency compared with FLC [15]: significantly more efficient than FLC
survival compared with the non-treated group [15]: significant longer survival
activity on fungal burden of the kidney compared to FLC [15]: significantly higher when compared to FLC
fungal burden of the kidney [15]: significantly decreased
survival ([17]; 14 days, p<0.01): did survive significantly longer
activity compared with compounds 29 and 35 ([17]; p<0.05): significantly more active than compounds 29 and 35
fungal burden of the kidney ([17]; p<0.05): significantly reduced
effectiveness against the promastigote stage of L. Mexicana, in words [16]: effective
IC50 [16]: 2.8 ± 0.2 µM

COc1ccc(-c2cc3cnn([C@H](C)[C@](O)(Cn4cncn4)c4ccc(F)cc4F)c(=O)n3c2)cc1 [Compound 51, 3-[(1R,2R)-2-(2,4-Difluorophenyl)-2-hydroxy-1-methyl-3-(1,2,4-triazol-1-yl)propyl]-7-(4-methoxyphenyl)-3H-pyrrolo[1,2-d][1,2,4]triazin-4-one]
MIC [1]: < 0.001 µg/mL
MIC [2]: < 0.001 µg/mL
MIC ([18]; Candida albicans, read-out: MIC values CAAL117): 0.018 ± 0.002 µg/mL (≈ 0.0365 µM)
fold more active than voriconazole against CAAL117 ([18]; compared with voriconazole): 100 fold
MIC [3]: 0.017 ± 0.003 µg/mL (≈ 0.0345 µM)
MIC [4]: 0.062 ± 0.032 µg/mL (≈ 0.126 µM)
MIC [5]: 0.081 ± 0.009 µg/mL (≈ 0.164 µM)
MIC [8]: 6.52 ± 0.16 µg/mL (≈ 13.2 µM)
MIC [9]: 6.08 ± 0.29 µg/mL (≈ 12.3 µM)
MIC [10]: 5.84 ± 0.2 µg/mL (≈ 11.9 µM)
MIC [11]: 2.21 ± 0.09 µg/mL (≈ 4.49 µM)
MIC [12]: 6.01 ± 0.48 µg/mL (≈ 12.2 µM)
activity against ITRA-resistant isolate ASFU13, in words [19]: active
MIC ([19]; Aspergillus fumigatus, read-out: MIC values ASFU13): 2.03 µg/mL (≈ 4.12 µM)
MIC [20]: > 49 µg/mL
MIC [21]: > 49 µg/mL
MIC values against ITRA-resistant isolate carrying M220T mutation (ASFU77), in words [13]: in the micromolar range
MIC [13]: 6.6 ± 0.24 µg/mL (≈ 13.4 µM)
activity against ITRA-resistant isolate ASFU20, in words [22]: active
MIC ([22]; Aspergillus fumigatus, read-out: MIC values ASFU20): 3.14 µg/mL (≈ 6.38 µM)
activity against ITRA-resistant isolate ASFU23, in words [23]: active
MIC ([23]; Aspergillus fumigatus, read-out: MIC values ASFU23): 1.92 µg/mL (≈ 3.9 µM)
cytotoxic effect at the higher concentration used (Hela Human cell line): didn't show any cytotoxic effect
survival compared with the non-treated group [15]: significant longer survival
fungal burden of the kidney [15]: most active
acute oral LD50 (CRL:(WI) rats; female CRL:(WI) rats, single oral gavage): above 300 mg/kg bw
GHS ranking for acute oral exposure (CRL:(WI) rats; female, CRL:(WI), rat, in vivo, po, 14 days): Category 4
body weight gains (CRL:(WI) rats; rat, in vivo, po, 300 mg/kg): no indication of a test item-related effect
clinical observations (CRL:(WI) rats; rat, in vivo, po, 300 mg/kg): hunched back and slightly decreased activity
mortality (CRL:(WI) rats; rat, in vivo, po, 300 mg/kg): did not cause mortality
